For one assay, the target named is NOD2 (Homo sapiens, UniProt Q9HC29). Put plainly: Microscale thermophoresis (MST) binding to purified NOD2-GFP. As for the experimental part:
The lysates were incubated with 2 ml GFP‐Trap agarose at 4°C for 4 h. The agarose was collected with Poly‐Prep columns by gravity flow. […] To remove heat shock proteins, columns were further washed with 50 ml wash buffer III (50 mM Tris–HCl, pH 7.5, 150 mM NaCl, 5 mM MgCl2+, 1 mM ATP). To elute the proteins, the agarose was mixed with 2 ml elution buffer (100 mM Glycine, pH 2.5) for 1 min and the eluted proteins were immediately neutralized with 0.2 ml of 1 M Tris, pH 10.5.

The next assay has as its target T1, NOD1 H517A (Homo sapiens, UniProt Q9Y239, H517A).
T1 construct: made in house
T1 sequence (Q9Y239 1-953 H517A): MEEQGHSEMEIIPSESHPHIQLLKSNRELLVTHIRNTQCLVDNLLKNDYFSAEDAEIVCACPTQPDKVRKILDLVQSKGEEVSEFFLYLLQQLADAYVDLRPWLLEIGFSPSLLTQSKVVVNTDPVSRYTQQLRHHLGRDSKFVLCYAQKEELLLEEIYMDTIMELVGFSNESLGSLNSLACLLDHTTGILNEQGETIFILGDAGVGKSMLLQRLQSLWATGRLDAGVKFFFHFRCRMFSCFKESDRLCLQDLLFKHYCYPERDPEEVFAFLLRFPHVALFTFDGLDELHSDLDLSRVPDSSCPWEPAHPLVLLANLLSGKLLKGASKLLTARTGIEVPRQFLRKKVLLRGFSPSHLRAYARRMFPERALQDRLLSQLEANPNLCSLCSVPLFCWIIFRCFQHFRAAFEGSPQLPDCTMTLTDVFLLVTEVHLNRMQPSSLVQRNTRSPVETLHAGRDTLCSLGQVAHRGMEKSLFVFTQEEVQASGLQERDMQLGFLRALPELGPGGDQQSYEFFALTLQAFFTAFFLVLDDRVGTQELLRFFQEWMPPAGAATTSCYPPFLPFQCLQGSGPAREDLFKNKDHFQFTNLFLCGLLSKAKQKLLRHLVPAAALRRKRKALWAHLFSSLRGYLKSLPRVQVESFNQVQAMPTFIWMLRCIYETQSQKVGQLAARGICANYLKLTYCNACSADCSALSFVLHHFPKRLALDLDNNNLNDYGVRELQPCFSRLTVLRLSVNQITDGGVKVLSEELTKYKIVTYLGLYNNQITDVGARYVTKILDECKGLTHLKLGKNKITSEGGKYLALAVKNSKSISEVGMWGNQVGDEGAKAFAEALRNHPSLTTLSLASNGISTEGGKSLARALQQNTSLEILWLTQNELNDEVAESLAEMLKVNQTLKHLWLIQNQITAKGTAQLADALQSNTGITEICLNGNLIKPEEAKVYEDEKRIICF
Put plainly: MST binding to purified NOD1 H517A-GFP. As for the experimental part:
The mutagenesis was performed with Q5® site‐directed mutagenesis kit (E0554, NEB) according to the manufacturer's instructions. The primers used in this study were as follows: NOD1 E157A F: 5′‐[…]gcg[…]‐3′, NOD1 E157A R: 5′‐[…]‐3′, NOD1 D161A F: 5′‐[…]gcg[…]‐3′, NOD1 D161A R: 5′‐[…]‐3′, NOD1 D203A F: 5′‐[…]gcg[…]‐3′, D203A R: 5′‐[…]‐3′, L218A F: 5′‐[…]gcg[…]‐3′, L218A R: 5′‐[…]‐3′, R237A F: 5′‐[…]gcg[…]‐3′, R237A R: 5′‐[…]‐3′, H257A F: 5′‐[…]gcg[…]‐3′, H257A R: 5′‐[…]‐3′, E267A F: 5′‐[…]gcg[…]‐3′, E267A R: 5′‐[…]‐3′, H290A F: 5′‐[…]gcg[…]‐3′, H290A R: 5′‐[…]‐3′, E306A F: 5′‐[…]gcg[…]‐3′, E306A R: 5′‐[…]‐3′, K324A F: 5′‐[…]gcg[…]‐3′, K324A R: 5′‐[…]‐3′, K328A F: 5′‐[…]gcg[…]‐3′, K328A R: 5′‐[…]‐3′, R340A F: 5′‐[…]gcg[…]‐3′, R340A R: 5′‐[…]‐3′, R344A F: 5′‐[…]gcg[…]‐3′, R344A R: 5′‐[…]‐3′, R350A F: 5′‐[…]gcg[…]‐3′, R350A R: 5′‐[…]‐3′, D372A F: 5′‐[…]gcg[…]‐3′, D372A R: 5′‐[…]‐3′, R373A F: 5′‐[…]gcg[…]‐3′, R373A R: 5′‐[…]‐3′, R399A F: 5′‐[…]gcg[…]‐3′, R399A R: 5′‐[…]‐3′, D423A F: 5′‐[…]gcg[…]‐3′, D423A R: 5′‐[…]‐3′, R435A F: 5′‐5′‐[…]gcg[…]‐3′, R435A R: 5′‐[…]‐3′, Q484A F: 5′‐[…]gcg[…]‐3′, Q484A R: 5′‐[…]‐3′, L495A F: 5′‐[…]gcg[…]‐3′, L495A R: 5′‐[…]‐3′, E514A F: 5′‐[…]gcg[…]‐3′, E514A R: 5′‐[…]‐3′, H517A F: 5′‐[…]gcg[…]‐3′, H517A R: 5′‐[…]‐3′, L540A F: 5′‐[…]gcg[…]‐3′, L540A R: 5′‐[…]‐3′, F544A F: 5′‐[…]gcg[…]‐3′, and F544A R: 5′‐[…]‐3′.

The subject of assay [1] is HeLa inducible NOD1 or NOD2 cells. In words: ELISA of IL6/IL8 in supernatants of HeLa inducible NOD1 or NOD2 cells. The class given is cell-based, human. As for the experimental part: To differentiate THP‐1 into macrophage‐like cells, THP‐1 cells were stimulated with 50 ng/ml phorbol 12‐myristate 13‐acetate (Sigma‐Aldrich, P8139) for 24 h and then incubated with fresh medium for another 48 h. […] To induce NOD1 or NOD2 expression, HeLa NOD1 or NOD2 cells were treated with 0.5 µg/ml or 0.25 µg/ml doxycycline for at least 16 h, respectively. All cells have been checked for mycoplasma contamination regularly. Bone marrow‐derived macrophages (BMDMs) were obtained from tibial and femural bones and generated with DMEM containing 20% L929 cell supernatant, 10% FBS, 5% heat‐inactivated horse serum, 1 mM sodium pyruvate, and 2 mM L‐glutamine. For BMDM stimulation experiments, BMDMs were treated with IFN‐γ (20 ng/ml) overnight before stimulation.
Background: In an ELISA, binding on a coated surface is turned into a signal by an enzyme label.

Each structure is given as a SMILES string. Like-named read-outs stand apart in the source and are kept apart here.

Sequence of NOD2 (Q9HC29 whole entry): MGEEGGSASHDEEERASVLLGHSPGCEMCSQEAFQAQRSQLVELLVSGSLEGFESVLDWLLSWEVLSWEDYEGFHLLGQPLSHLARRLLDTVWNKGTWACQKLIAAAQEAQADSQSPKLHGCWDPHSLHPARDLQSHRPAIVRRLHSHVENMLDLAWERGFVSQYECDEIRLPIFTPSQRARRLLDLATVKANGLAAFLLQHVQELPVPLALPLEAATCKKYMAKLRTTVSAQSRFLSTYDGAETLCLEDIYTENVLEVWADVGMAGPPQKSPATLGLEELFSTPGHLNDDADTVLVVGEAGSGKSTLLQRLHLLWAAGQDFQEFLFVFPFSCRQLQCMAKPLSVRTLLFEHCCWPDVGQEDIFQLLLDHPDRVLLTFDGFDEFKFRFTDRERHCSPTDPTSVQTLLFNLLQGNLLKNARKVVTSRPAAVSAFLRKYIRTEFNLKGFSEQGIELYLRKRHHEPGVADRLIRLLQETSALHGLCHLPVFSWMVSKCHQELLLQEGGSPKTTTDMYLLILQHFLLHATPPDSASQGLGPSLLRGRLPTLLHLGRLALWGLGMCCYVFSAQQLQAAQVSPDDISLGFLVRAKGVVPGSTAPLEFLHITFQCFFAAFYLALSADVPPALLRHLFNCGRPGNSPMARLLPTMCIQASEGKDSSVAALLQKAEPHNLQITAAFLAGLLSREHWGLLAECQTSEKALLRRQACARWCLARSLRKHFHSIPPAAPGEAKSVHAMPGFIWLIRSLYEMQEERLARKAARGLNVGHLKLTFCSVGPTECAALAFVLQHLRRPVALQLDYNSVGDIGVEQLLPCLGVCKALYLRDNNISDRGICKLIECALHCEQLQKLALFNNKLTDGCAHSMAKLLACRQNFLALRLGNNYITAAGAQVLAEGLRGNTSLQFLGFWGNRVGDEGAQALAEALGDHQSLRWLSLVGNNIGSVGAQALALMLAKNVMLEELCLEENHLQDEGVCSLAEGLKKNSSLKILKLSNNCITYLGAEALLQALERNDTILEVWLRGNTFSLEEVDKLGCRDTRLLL

For the compound `CCCCCCCCCCCCC/C=C/[C@@H](O)[C@@H](N)COP(=O)(O)O` [S1P, sphingosine‐1‐phosphate], the Kd at NOD2 (Fig 6E, one representative experiment, read-out: Kd (NOD2/ligand)) is 5.36 ± 1.91 µM; on NOD2 (Fig EV5C, purified NOD2, read-out: Kd (NOD2/ligand)) it was 3.19 ± 1.97 µM; on NOD2 (Kd value of S1P interacting with NOD2, as stated in text), approximately 5 µM; on NOD2 (Kd(NOD2: S1P), Fig 7D, S1P alone) it was 2.4 ± 0.38 µM; on NOD1 H517A (Kd value of NOD1 H517A with S1P), approximately 15 µM; on NOD1 H517A (Kd(NOD1 H517A: S1P), Fig 7E), 13.7 ± 6.1 µM. For the same compound, the “IL6 production compared to iE-DAP or MDP at the same concentration” value in assay [1] (0.5, 5 or 20 µM with digitonin (5 µg/ml), Fig EV4E,F) is on record as “higher IL6 production”. Also, in assay [1] (S1P (2 µM) with iE-DAP or MDP (3, 20, 50 µM), digitonin, 20 h), the “IL6 production on co-stimulation vs single stimulation” value is “significantly higher IL6 production”. For the same compound, the “IL6 or IL8 production” value is recorded as “induced abundant IL6 or IL8 production” in assay [1] (cytosolic delivery with digitonin (5 µg/ml), 20 h) and “did not induce marked IL6 or IL8 production” in assay [1] (extracellular stimulation (absence of digitonin), S1P 10 µM).
